Reference: the CheMixHub viscosity set
“And” between values parts separate entries of the source, which are not always exact repeats. Identical values can stand only once. ± gives the uncertainty stated by the source.

Assay: xn = mol fraction of the nth substance listed

CCC[NH2+]CCO.O=C([O-])c1ccccc1O + O
100 kPa, x2 = 0.14
Details | viscosity [mPa·s]
298 K | 376.1 ± 16
303 K | 261.8 ± 11
313 K | 136.8 ± 5
323 K | 78.08 ± 2.7

CCCCC(=O)OCC + CCCCCO
viscosity [mPa·s], 101.33 kPa
Details | x1 = 0.1037 | x1 = 0.1921 | x1 = 0.3001 | x1 = 0.4089 | x1 = 0.5015 | x1 = 0.6062 | x1 = 0.7081 | x1 = 0.8013 | x1 = 0.9029
293.15 K | 3.302 ± 0.044 | 2.761 ± 0.038 | 2.241 ± 0.033 | 1.841 ± 0.029 | 1.575 ± 0.026 | 1.34 ± 0.024 | 1.163 ± 0.022 | 1.036 ± 0.02 | 0.927 ± 0.019
303.15 K | 2.379 ± 0.034 | 2.008 ± 0.03 | 1.651 ± 0.027 | 1.377 ± 0.024 | 1.195 ± 0.022 | 1.033 ± 0.02 | 0.912 ± 0.019 | 0.825 ± 0.018 | 0.749 ± 0.018
313.15 K | 1.887 ± 0.029 | 1.61 ± 0.026 | 1.344 ± 0.024 | 1.139 ± 0.022 | 1.004 ± 0.02 | 0.884 ± 0.019 | 0.793 ± 0.018 | 0.728 ± 0.017 | 0.672 ± 0.017

CCCCCCCCCC + CCCCCCC
Details | viscosity
293.15 K, 100 kPa, x1 = 0.3 | 0.506 ± 0.022 mPa·s
293.15 K, 101.33 kPa, x2 = 0.321 | 0.725 ± 0.01 mPa·s
293.15 K, 101.33 kPa, x2 = 0.587 | 0.584 ± 0.008 mPa·s
293.15 K, 101.33 kPa, x2 = 0.81 | 0.489 ± 0.007 mPa·s
294.62 K, 101.3 kPa, x2 = 0.49 | 0.64 ± 0.0091 mPa·s
298.15 K, 101.33 kPa, x2 = 0.0985 | 0.8051 ± 0.021 mPa·s
298.15 K, 101.33 kPa, x2 = 0.2017 | 0.745 ± 0.019 mPa·s
298.15 K, 101.33 kPa, x2 = 0.3053 | 0.6806 ± 0.018 mPa·s
298.15 K, 101.33 kPa, x2 = 0.4073 | 0.6363 ± 0.017 mPa·s
298.15 K, 101.33 kPa, x2 = 0.5076 | 0.5891 ± 0.016 mPa·s
298.15 K, 101.33 kPa, x2 = 0.6069 | 0.5466 ± 0.015 mPa·s
298.15 K, 101.33 kPa, x2 = 0.7083 | 0.4983 ± 0.014 mPa·s
298.15 K, 101.33 kPa, x2 = 0.8023 | 0.4575 ± 0.013 mPa·s
298.15 K, 101.33 kPa, x2 = 0.903 | 0.4242 ± 0.012 mPa·s
303.11 K, 100 kPa, x2 = 0.77 | 0.4628 ± 0.0071 mPa·s and 0.4626 ± 0.0072 mPa·s
303.15 K, 101.3 kPa, x2 = 0.77 | 0.4628 ± 0.0071 mPa·s
303.17 K, 100 kPa, x2 = 0.49 | 0.5761 ± 0.0085 mPa·s and 0.5762 ± 0.0085 mPa·s
303.17 K, 101.3 kPa, x2 = 0.49 | 0.5761 ± 0.0085 mPa·s
313.11 K, 101.3 kPa, x2 = 0.49 | 0.5111 ± 0.0078 mPa·s
313.15 K, 100 kPa, x1 = 0.3 | 0.393 ± 0.018 mPa·s
313.18 K, 101.3 kPa, x2 = 0.77 | 0.4127 ± 0.0067 mPa·s
323.15 K, 100 kPa, x2 = 0.49 | 0.4588 ± 0.0072 mPa·s
323.15 K, 101.3 kPa, x2 = 0.49 | 0.4588 ± 0.0072 mPa·s

CS(C)=O + Cc1ccccc1
Details | viscosity [mPa·s]
298.15 K, 101 kPa, x1 = 0.1 | 0.606 ± 0.006
298.15 K, 101 kPa, x1 = 0.2 | 0.675 ± 0.007
298.15 K, 101 kPa, x1 = 0.3 | 0.761 ± 0.008
298.15 K, 101 kPa, x1 = 0.4 | 0.867 ± 0.009
298.15 K, 101 kPa, x1 = 0.5 | 0.99 ± 0.01
298.15 K, 101 kPa, x1 = 0.6 | 1.122 ± 0.011
298.15 K, 101 kPa, x1 = 0.7 | 1.268 ± 0.012
298.15 K, 101 kPa, x1 = 0.8 | 1.452 ± 0.014
298.15 K, 101 kPa, x1 = 0.9 | 1.679 ± 0.016
298.15 K, 101.3 kPa, x1 = 0.1025 | 0.609 ± 0.017
298.15 K, 101.3 kPa, x1 = 0.2029 | 0.671 ± 0.018
298.15 K, 101.3 kPa, x1 = 0.3843 | 0.838 ± 0.022
298.15 K, 101.3 kPa, x1 = 0.504 | 0.964 ± 0.024
298.15 K, 101.3 kPa, x1 = 0.6035 | 1.095 ± 0.027
298.15 K, 101.3 kPa, x1 = 0.7049 | 1.25 ± 0.031
298.15 K, 101.3 kPa, x1 = 0.7997 | 1.43 ± 0.035
298.15 K, 101.3 kPa, x1 = 0.9017 | 1.686 ± 0.04
302.4 K, 101 kPa, x1 = 0.0908 | 1.087
302.4 K, 101 kPa, x1 = 0.2568 | 1.399
302.4 K, 101 kPa, x1 = 0.4732 | 1.615
302.4 K, 101 kPa, x1 = 0.5996 | 2.242
302.4 K, 101 kPa, x1 = 0.7139 | 2.506
302.4 K, 101 kPa, x1 = 0.8665 | 3.234
303.15 K, 101.3 kPa, x1 = 0.1025 | 0.574 ± 0.016
303.15 K, 101.3 kPa, x1 = 0.2029 | 0.636 ± 0.017
303.15 K, 101.3 kPa, x1 = 0.3843 | 0.777 ± 0.02
303.15 K, 101.3 kPa, x1 = 0.504 | 0.894 ± 0.023
303.15 K, 101.3 kPa, x1 = 0.6035 | 1.01 ± 0.025
303.15 K, 101.3 kPa, x1 = 0.7049 | 1.149 ± 0.028
303.15 K, 101.3 kPa, x1 = 0.7997 | 1.309 ± 0.032
303.15 K, 101.3 kPa, x1 = 0.9017 | 1.526 ± 0.037
308.15 K, 101 kPa, x1 = 0.1 | 0.537 ± 0.006
308.15 K, 101 kPa, x1 = 0.2 | 0.594 ± 0.006
308.15 K, 101 kPa, x1 = 0.3 | 0.664 ± 0.007
308.15 K, 101 kPa, x1 = 0.4 | 0.741 ± 0.008
308.15 K, 101 kPa, x1 = 0.5 | 0.833 ± 0.008
308.15 K, 101 kPa, x1 = 0.6 | 0.937 ± 0.009
308.15 K, 101 kPa, x1 = 0.7 | 1.065 ± 0.011
308.15 K, 101 kPa, x1 = 0.8 | 1.217 ± 0.012
308.15 K, 101 kPa, x1 = 0.9 | 1.407 ± 0.014
308.15 K, 101.3 kPa, x1 = 0.1025 | 0.54 ± 0.015
308.15 K, 101.3 kPa, x1 = 0.2029 | 0.598 ± 0.016
308.15 K, 101.3 kPa, x1 = 0.3843 | 0.727 ± 0.019
308.15 K, 101.3 kPa, x1 = 0.504 | 0.833 ± 0.021
308.15 K, 101.3 kPa, x1 = 0.6035 | 0.963 ± 0.024
308.15 K, 101.3 kPa, x1 = 0.7049 | 1.062 ± 0.027
308.15 K, 101.3 kPa, x1 = 0.7997 | 1.204 ± 0.03
308.15 K, 101.3 kPa, x1 = 0.9017 | 1.398 ± 0.034
318.15 K, 101 kPa, x1 = 0.1 | 0.482 ± 0.005
318.15 K, 101 kPa, x1 = 0.2 | 0.53 ± 0.006
318.15 K, 101 kPa, x1 = 0.3 | 0.587 ± 0.006
318.15 K, 101 kPa, x1 = 0.4 | 0.654 ± 0.007
318.15 K, 101 kPa, x1 = 0.5 | 0.731 ± 0.007
318.15 K, 101 kPa, x1 = 0.6 | 0.817 ± 0.008
318.15 K, 101 kPa, x1 = 0.7 | 0.921 ± 0.009
318.15 K, 101 kPa, x1 = 0.8 | 1.047 ± 0.01
318.15 K, 101 kPa, x1 = 0.9 | 1.201 ± 0.012

NCCCC[C@H](N)C(=O)O + O
viscosity [mPa·s], 101 kPa
Details | 293.15 K | 298.15 K | 303.15 K | 308.15 K | 313.15 K
x1 = 0.006 | 1.261 ± 0.12 | 1.129 ± 0.12 | 1.016 ± 0.12 | 0.9447 ± 0.12 | 0.8984 ± 0.12
x1 = 0.014 | 1.324 ± 0.12 | 1.194 ± 0.12 | 1.079 ± 0.12 | 1.013 ± 0.12 | 0.9598 ± 0.12

[K+].[O-][Cl+2]([O-])[O-] + O
viscosity [mPa·s], 100 kPa
Details | 293.15 K | 298.15 K | 303.15 K | 308.15 K | 313.15 K | 318.15 K
x1 = 0.000182 | 0.995 ± 0.031 | 0.888 ± 0.028 | 0.799 ± 0.025 | 0.725 ± 0.022 | 0.661 ± 0.02 | 0.607 ± 0.019
x1 = 0.0018 | 0.984 ± 0.03 | 0.878 ± 0.027 | 0.789 ± 0.024 | 0.717 ± 0.022 | 0.655 ± 0.02 | 0.602 ± 0.019
x1 = 0.003608 | 0.979 ± 0.03 | 0.874 ± 0.027 | 0.788 ± 0.024 | 0.717 ± 0.022 | 0.656 ± 0.02 | 0.603 ± 0.019
x1 = 0.005413 | 0.977 ± 0.03 | 0.873 ± 0.027 | 0.788 ± 0.024 | 0.718 ± 0.022 | 0.656 ± 0.02 | 0.604 ± 0.019
x1 = 0.00717 | 0.977 ± 0.03 | 0.876 ± 0.027 | 0.791 ± 0.024 | 0.72 ± 0.022 | 0.659 ± 0.02 | 0.608 ± 0.019
x1 = 0.008941 | 0.983 ± 0.03 | 0.881 ± 0.027 | 0.797 ± 0.025 | 0.725 ± 0.022 | 0.665 ± 0.021 | 0.613 ± 0.019
